We go through 1 compound from patent US20170058348A1, “Predictive mRNA Biomarkers for the Prediction of the Treatment with Methotrexate (MTX)” (Charité - Universitätsmedizin Berlin, priority 2014, published 2017).

Assay [1] relates to patients with a clinically confirmed RA. As to the kind of experiment: Clinical response to MTX therapy in RA patients (DAS28, EULAR criteria). It counts as in vivo, human. The settings on record: Health Assessment Questionnaire; one line per individual RA patient; during MTX treatment. As to the method:
[…] patients with a clinically confirmed RA were examined in the series of tests for the identification and definition of biomarkers for therapy prediction with MTX. In this regard, 5 ml of whole blood was taken from the patients in 2 PAXgene tubes (PreAnalytiX, Hombrechtikon, Switzerland) and turned for 24 hours on an overhead roller at 20° C. (20 rpm); afterwards, they were frozen at −20° C. until worked up. The patient samples were acquired in the context of two clinical studies under standard conditions (HitHard study; n=29; own clinical study; n=22) and after authorization by the ethics commission of the charity, as well as the agreement of the patients. The clinical data, prior to MTX therapy and over the course of >1 year, were stored in the context of the study conditions in a clinical database in accordance with ISO 9001 standard guidelines. The calculation of the assessment of the MTX response before and during the therapy periods was carried out in accordance with the guidelines from the European League Against Rheumatism (ELUAR) using the “Disease Activity Score” considering 28 joints (DAS28; (van Gestel et al, 1999)). The MTX therapy response was classified, in accordance with the guidelines, into the following three groups: responders (R), moderate responders (MR) and non-responders (NR). […]

The subject of the next assay is RA patients. The settings on record: after a year (Furst 1996); cited from earlier work.

Molecules are shown by their SMILES. Where “and” joins values, the source holds several entries; their conditions need not be identical. Equal values may be shown once.

In the case of `CN(Cc1cnc2nc(N)nc(N)c2n1)c1ccc(C(=O)N[C@@H](CCC(=O)O)C(=O)O)cc1` [MTX, methotrexate], in assay [1], the HAQ was 0.6 (2×) and 0.8 and 1.3 (3×) and 0.3 (3×) and 0.0 (3×) and 0.1 (4×) and 1.0 (2×) and 0.5 (2×) and 0.75 and 1.1 (3×) and 0.4 and 1.4 and 0.9 and 1.5 and 1.9 and 2.3. For the same compound, the sustained success rates in the assay on RA patients is 40-50%.
